From patent US10517889B2, “Modulators of SMAD7 expression” (Ionis Pharmaceuticals, Inc., priority 2017, dated 2019)
Strand notation (5' to 3'): a small letter for the sugar, then the base; units joined by * are phosphorothioate-linked, units joined directly phosphodiester-linked; [ ] holds rarer units or linkages, { } end groups; capitals alone tell only the bases. k = constrained ethyl (cEt); [5mC] = 5-methylcytosine; d = 2'-deoxy (DNA)

These substances were tested on human SMAD7 mRNA (assay: Antisense inhibition of human SMAD7 mRNA expression in Hep3B cells by 3-10-3 cEt gapmers, 10,000 nM, electroporation (Example 2)). Settings: Hep3B cells, 10,000 nM antisense oligonucleotide, electroporation, approximately 24 hours, RT-PCR primer probe set RTS5062, relative to untreated control cells.
Type: cell-based
Experimental: Antisense oligonucleotides were designed to target human SMAD7 mRNA and were tested for their effects on SMAD7 mRNA expression in vitro. The antisense oligonucleotides were tested in a series of experiments that had similar culture conditions, as described below. ION 771576, described in the studies above and which is a 5-10-5 MOE gapmer, was also included in these assays. Cultured Hep3B cells at a density of 20,000 cells per well were transfected using electroporation with 10,000 nM antisense oligonucleotide. After a treatment period of approximately 24 hours, RNA was isolated from the cells and SMAD7 mRNA levels were measured by quantitative real-time PCR. Primer probe set RTS5062 was used to measure human SMAD7 mRNA levels. SMAD7 mRNA levels were adjusted according to total RNA content, as measured by RIBOGREEN®. Results are presented as percent inhibition of SMAD7 mRNA expression, relative to untreated control cells.
The newly designed chimeric antisense oligonucleotides in the Tables below were designed as 3-10-3 cEt gapmers. The gapmers are 16 nucleosides in length, wherein the central gap segment comprises often 2′-deoxynucleosides and is flanked by wing segments on the 5′ direction and the 3′ direction comprising three nucleosides each. Each nucleoside in the 5′ wing segment and each nucleoside in the 3′ wing segment has a cEt sugar modification. The internucleoside linkages throughout each gapmer are phosphorothioate (P═S) linkages. All cytosine residues throughout each gapmer are 5-methylcytosines.
“Start site” indicates the 5′-most nucleoside to which the gapmer is targeted in the human gene sequence. “Stop site” indicates the 3′-most nucleoside to which the gapmer is targeted human gene sequence. […] Some of the oligonucleotides presented were complementary to SMAD7 mRNA sequences RefSeqNo. NM_001190821.1 (designated herein as SEQ ID NO: 3) or RefSeqNo. NM_001190822.1 (designated herein as SEQ ID NO: 4), and are presented in a separate table shown below.

Substance | % Inhibition [%]
798928 (antisense kT*kA*kG*d[5mC]*dA*dG*d[5mC]*dA*dA*dA*dG*dT*dA*kG*kT*kT) [compound 798928] | 6
800016 (kG*kT*kT*d[5mC]*dA*dT*dT*dT*dT*dA*dA*dA*dG*k[5mC]*kA*kT; antisense) [compound 800016] | 32
798838 (k[5mC]*k[5mC]*kG*dA*dA*dT*dT*dG*dA*dG*d[5mC]*dT*dG*kT*k[5mC]*k[5mC]; antisense) [compound 798838] | 58

Same assay, conditions: Hep3B cells, electroporation with 10,000 nM antisense oligonucleotide, approximately 24 hours, RTS5062, percent inhibition of SMAD7 mRNA relative to untreated control cells

Substance | % Inhibition [%]
799768 (k[5mC]*kA*k[5mC]*d[5mC]*dA*dA*d[5mC]*d[5mC]*dT*d[5mC]*dT*dG*dT*kG*kG*kG; antisense) [compound 799768] | 0
799530 (kG*k[5mC]*kT*d[5mC]*dA*dA*dT*dG*dA*dG*dA*d[5mC]*dT*kG*kG*k[5mC]; antisense) [compound 799530] | 34

Same assay, conditions: Hep3B cells, electroporation with 10,000 nM antisense oligonucleotide, approximately 24 hours, SMAD7 mRNA by RT-PCR (RTS5062), relative to untreated control cells

Substance | % Inhibition [%]
830126 (antisense k[5mC]*kT*k[5mC]*d[5mC]*dG*dA*dG*dG*d[5mC]*dA*d[5mC]*d[5mC]*dA*k[5mC]*kA*kT) [compound 830126] | 34
790680 (kG*kG*kT*dG*dA*dG*dT*dA*dA*d[5mC]*d[5mC]*dA*dG*k[5mC]*kT*kG; antisense) [compound 790680] | 56
799448 (antisense kG*kT*kA*dA*dA*dA*dT*dG*dA*dA*dT*dG*dA*k[5mC]*kT*kG) [compound 799448] | 41
798736 (antisense kG*k[5mC]*kG*d[5mC]*d[5mC]*d[5mC]*d[5mC]*d[5mC]*dG*dG*d[5mC]*d[5mC]*dG*k[5mC]*kG*k[5mC]) [compound 798736] | 0
830211 (kA*kG*kA*d[5mC]*d[5mC]*dG*dG*dA*dA*dG*dT*d[5mC]*dT*kT*kG*kT; antisense) [compound 830211] | 30
798740 (antisense kT*kT*kG*dA*dG*d[5mC]*dA*d[5mC]*d[5mC]*dG*dA*dG*dT*kG*k[5mC]*kG) [compound 798740] | 56
830141 (antisense kG*kG*k[5mC]*dA*dT*dT*dA*dG*dA*dG*dA*d[5mC]*d[5mC]*kT*k[5mC]*kA) [compound 830141] | 58
799253 (antisense k[5mC]*kT*k[5mC]*d[5mC]*dA*dA*dA*dG*dG*dT*dG*d[5mC]*dG*k[5mC]*kG*kG) [compound 799253] | 0
799512 (antisense kG*kT*kT*dA*dA*dT*dG*dA*dG*dG*dA*dT*dA*kA*kT*kG) [compound 799512] | 16
798900 (k[5mC]*k[5mC]*kA*dG*d[5mC]*dA*d[5mC]*dG*dG*dG*d[5mC]*dA*dG*k[5mC]*kT*kG; antisense) [compound 798900] | 0
798862 (kT*k[5mC]*k[5mC]*dA*dG*dT*dG*dT*dG*dG*d[5mC]*dG*dG*kA*k[5mC]*kT; antisense) [compound 798862] | 20
798881 (k[5mC]*k[5mC]*kG*dT*d[5mC]*d[5mC]*dA*d[5mC]*dG*dG*d[5mC]*dT*dG*k[5mC]*kT*kG; antisense) [compound 798881] | 14
830201 (antisense k[5mC]*kT*kG*dA*dA*dG*dG*d[5mC]*dT*dA*d[5mC]*dA*d[5mC]*k[5mC]*kA*kA) [compound 830201] | 37

Same assay, conditions: Hep3B cells, electroporation with 10,000 nM antisense oligonucleotide, approximately 24 hours, primer probe set RTS5062, relative to untreated control cells

Substance | % inhibition of SMAD7 mRNA expression [%] | % Inhibition [%]
799462 (antisense kA*kA*kG*d[5mC]*dA*d[5mC]*dT*dA*dG*dG*dT*dT*d[5mC]*kT*kG*k[5mC]) [compound 799462] | 43 | –
799164 (antisense kT*k[5mC]*kG*dA*dA*dG*dT*dA*dT*d[5mC]*dA*dT*dA*k[5mC]*kG*kA) [compound 799164] | 37 | –
799161 (antisense k[5mC]*kA*kT*dA*d[5mC]*dG*dA*dG*dT*dG*dT*dA*dT*kG*kA*kG) [compound 799161] | – | 29
799044 (k[5mC]*kA*kG*dA*dG*d[5mC]*d[5mC]*dG*dT*dG*d[5mC]*dT*d[5mC]*k[5mC]*kT*kG; antisense) [compound 799044] | 0 | –
799056 (antisense k[5mC]*kG*k[5mC]*dT*dG*d[5mC]*dT*d[5mC]*dA*dG*dA*dA*dG*k[5mC]*k[5mC]*kT) [compound 799056] | – | 28
799327 (kG*k[5mC]*kA*d[5mC]*dA*d[5mC]*dT*d[5mC]*dT*d[5mC]*d[5mC]*d[5mC]*dA*kG*kG*kA; antisense) [compound 799327] | 52 | –
799166 (antisense kA*kA*k[5mC]*dA*dG*dT*dG*dT*d[5mC]*dG*dA*dA*dG*kT*kA*kT) [compound 799166] | 21 | –
798941 (antisense kA*kA*kA*dA*dA*dA*dA*d[5mC]*dG*dA*d[5mC]*d[5mC]*dA*kA*kA*kG) [compound 798941] | – | 40
798942 (antisense k[5mC]*kG*kA*dG*dA*dA*dG*dA*dA*dG*dA*dA*dA*kA*k[5mC]*k[5mC]) [compound 798942] | – | 35
799218 (k[5mC]*kA*kT*dT*dT*dG*dT*dT*dA*dT*dT*dT*dG*k[5mC]*kA*kT; antisense) [compound 799218] | 0 | –
799122 (antisense k[5mC]*kT*kG*dG*d[5mC]*d[5mC]*dT*dA*dA*dT*dA*dG*d[5mC]*kA*kG*kA) [compound 799122] | – | 29
799384 (antisense kG*kG*k[5mC]*dA*d[5mC]*dA*dA*dA*dA*dA*d[5mC]*d[5mC]*dA*kA*kG*kG) [compound 799384] | 40 | –
799186 (antisense k[5mC]*kT*kT*dG*dT*dT*d[5mC]*dA*dT*dT*dT*dA*dA*kA*k[5mC]*k[5mC]) [compound 799186] | 31 | –
798692 (antisense kG*kG*kG*d[5mC]*dG*d[5mC]*dA*d[5mC]*dG*dG*d[5mC]*dT*d[5mC]*k[5mC]*kT*k[5mC]) [compound 798692] | 48 | –

Same assay, conditions: Hep3B cells, electroporation, 10,000 nM antisense oligonucleotide, approximately 24 hours, RTS5062, relative to untreated control cells

Substance | % inhibition of SMAD7 mRNA expression [%]
799308 (antisense k[5mC]*kG*k[5mC]*dT*d[5mC]*dT*dA*dA*dA*d[5mC]*dA*dG*d[5mC]*kA*kT*kG) [compound 799308] | 47
799772 (k[5mC]*kG*k[5mC]*d[5mC]*dG*d[5mC]*dG*dG*d[5mC]*dA*dT*dA*dT*kG*k[5mC]*k[5mC]; antisense) [compound 799772] | 30
799731 (antisense k[5mC]*kT*kT*dT*d[5mC]*dT*dT*dG*dG*dT*dG*dT*dG*kT*kT*kA) [compound 799731] | 37
799813 (antisense kA*kT*kG*d[5mC]*dA*dG*dA*d[5mC]*dA*dG*d[5mC]*dT*dA*kA*kT*k[5mC]) [compound 799813] | 16
799774 (kG*k[5mC]*k[5mC]*d[5mC]*dT*dG*dT*dT*d[5mC]*dT*dG*d[5mC]*dG*k[5mC]*kT*kA; antisense) [compound 799774] | 0

Same assay, conditions: SMAD7 mRNA, Hep3B cells, 10,000 nM antisense oligonucleotide, electroporation, approximately 24 hours, primer probe set RTS5062, relative to untreated control cells

Substance | % Inhibition [%]
790647 (k[5mC]*kG*k[5mC]*dG*dA*dG*dG*d[5mC]*dG*dG*dT*dG*dA*kT*kT*kG; antisense) [compound 790647] | 24
829715 (antisense kT*k[5mC]*kT*d[5mC]*d[5mC]*d[5mC]*dG*dG*dA*dG*dG*d[5mC]*d[5mC]*kG*kG*kG) [compound 829715] | 40

Same assay, conditions: SMAD7 mRNA, Hep3B cells, electroporation with 10,000 nM antisense oligonucleotide, approximately 24 hours, primer probe set RTS5062, relative to untreated control cells

Substance | % Inhibition [%]
829998 (kT*kG*kT*dT*dT*dG*dT*d[5mC]*dT*dT*dA*dG*d[5mC]*kT*kG*kT; antisense) [compound 829998] | 34
829879 (antisense kT*kG*kG*dA*dG*dT*d[5mC]*d[5mC]*dG*dG*dG*dT*dT*kG*kT*k[5mC]) [compound 829879] | 29
829927 (kA*kA*kG*dT*d[5mC]*dT*dA*dA*dA*d[5mC]*dA*dT*dG*k[5mC]*kT*k[5mC]; antisense) [compound 829927] | 64
829966 (kT*kT*k[5mC]*d[5mC]*d[5mC]*dA*dG*dG*dA*dG*dG*dG*dT*kA*kT*kG; antisense) [compound 829966] | 0
829866 (antisense kG*kT*kG*dG*d[5mC]*dG*dG*dA*d[5mC]*dT*dT*dG*dA*kT*kG*kA) [compound 829866] | 10
